Where no end group is shown, it is not given here.
Assays:
[1] = system: C. albicans, strain 820; assay: radial diffusion assay in agarose gels, C. albicans; format: cell-based; conditions: for minimal microbicidal concentration: Target C. albicans; for inhibitory activity against C. albicans (FIG. 4c): result in words
Experimental: (§1) Aliquots (66 μl ) of each fraction were dried by vacuum centrifugation, and resuspended in approximately 6.6 μl of 0.01% acetic acid. Five μl samples of this concentrate were tested for antimicrobial activity against E. coli ML-35, L. monocytogenes, Strain EGD and C. albicans, strain 820 by radial diffusion and gel overlay techniques (Lehrer, R. I. et al. J Immunol Meth (1991) 137:167-173). Active fractions were further examined by acid-urea PAGE and SDS-PAGE. Prophenins emerged from the P10 column in fractions 38-43 (39.6 ml total volume), which contained a total of 18 mg protein BCA analysis.
(§2) The radial diffusion assay in agarose gels as described above was also used to test the activity of the purified prophenins. Samples of 5 μL each were added to 3 mm wells in thin gels composed of 10 mM sodium phosphate, 30 mg/ml trypticase soy broth powder in 1% agarose and containing approximately 4×10^5 CFU/ml of mid-log phase organisms. After allowing 3 hours for the samples to diffuse into the underlayer gel, a nutrient-rich overlay gel was poured and the plates were incubated for 24 hours at 37° C. to allow surviving organisms to form microcolonies. The diameters of the clear zones were measured and expressed in "units" (10 units=1 mm) as described previously.

[2] = system: E. coli ML-35; assay: radial diffusion assay in agarose gels, E. coli; format: cell-based; conditions: for minimal microbicidal concentration: Target E. coli
Experimental: as §1, §2

[3] = system: L. monocytogenes, Strain EGD; assay: radial diffusion assay in agarose gels, L. monocytogenes; format: cell-based; conditions: Target L. monocytogenes
Experimental: as §1, §2

[4] = system: lipid polysaccharide (LPS) of the Gram-negative bacterium E. coli strain 0.55B5; assay: Limulus amebocyte lysate (LAL) test for endotoxin binding; format: biochemical; parameters: key to LPS-induced gel formation of E-TOXATE (Table 3): ++: a solid gel (no inhibition); +: increased viscosity without solid gel formation (partial inhibition); 0: gelation was absent (complete inhibition); conditions: for LPS-induced gel formation of E-TOXATE (Table 3): 60 minutes at 37° C.
Experimental: The prophenins of the invention were tested for their ability to bind the lipid polysaccharide (LPS) of the Gram-negative bacterium E. coli strain 0.55B5. The assay was the Limulus amebocyte lysate (LAL) test for endotoxins conducted in the presence and absence of the test compounds. The test was conducted using the procedure described in Sigma Technical Bulletin No. 210 as revised in Dec. 1992 and published by Sigma Chemical Company, St. Louis, Mo.
The LAL test is based on the ability of LPS to effect gelation in the commercial reagent E-TOXATE™ which is prepared from the lysate of circulating amebocytes of the Horseshoe Crab Limulus polyphemus. As described in the technical bulletin, when exposed to minute quantities of LPS, the lysate increases in opacity as well as viscosity and may gel or clot depending on the concentration of endotoxin. The technical bulletin goes on to speculate that the mechanism appears analogous to the clotting of mammalian blood and involves the steps of activation of a trypsin-like preclotting enzymes by the LPS in the presence of calcium ion, followed by enzymic modifications of a "coagulogen" by proteolysis to produce a clottable protein. These steps are believed tied to the biologically active or "pyrogenic" portion of the molecule. It has been shown previously that detoxified LPS (or endotoxin) gives a negative LAL test.
In the assay, the amounts of prophenin-1 and polymyxin B (78% free polymyxin, Sigma) were preincubated in a final volume of 0.2 ml and the test mixtures contained LPS at a final concentration of 0.05 endotoxin unit/ml and E-TOXATE™ at the same concentration. The test compounds were incubated together with the LPS for 15 minutes before the E-TOXATE™ was added to a final volume (after E-TOXATE™ addition) of 0.2 ml. The tubes were then incubated for 60 minutes at 37° C. and examined for the formation of a gel.

Substance: PG-3: protegrin-3 (PG3), control (RGGGLCYCRRRFCVCVGR; ends and bridges not checked; cysteine pairing not given here; UniProt P32196 131-148, looked up)
- minimal microbicidal concentration [1]: 6.9 µg/mL
- inhibitory activity against C. albicans (FIG. 4c) [1]: successful antifungals
- minimal microbicidal concentration [2]: 8.6 µg/mL
- inhibitory activity against E. coli ML-35 (FIG. 4a) ([2]; result in words): more inhibitory than HNP-1
- minimal microbicidal concentration [3]: 9.0 µg/mL

Substance: Polymyxin B
- concentration giving complete inhibition of gelation ([4]; LAL test, LPS 0.05 endotoxin unit/ml): 5 µg/mL
- concentration giving complete inhibition of gelation, molar ([4]; LAL test, converted from μg/ml): ≈ 4.2 μM
- LPS-induced gel formation of E-TOXATE (Table 3) ([4]; peptide 0.16 μg/ml, LPS 0.05 endotoxin unit/ml): ++
- LPS-induced gel formation of E-TOXATE (Table 3) ([4]; peptide 0.31 μg/ml, LPS 0.05 endotoxin unit/ml): ++
- LPS-induced gel formation of E-TOXATE (Table 3) ([4]; peptide 0.63 μg/ml, LPS 0.05 endotoxin unit/ml): ++
- LPS-induced gel formation of E-TOXATE (Table 3) ([4]; peptide 1.25 μg/ml, LPS 0.05 endotoxin unit/ml): ++
- LPS-induced gel formation of E-TOXATE (Table 3) ([4]; peptide 2.5 μg/ml, LPS 0.05 endotoxin unit/ml): +
- LPS-induced gel formation of E-TOXATE (Table 3) ([4]; peptide 5.0 μg/ml, LPS 0.05 endotoxin unit/ml): 0
- LPS-induced gel formation of E-TOXATE (Table 3) ([4]; peptide 10.0 μg/ml, LPS 0.05 endotoxin unit/ml): 0

Substance: HNP-2: column head of Table 2; probably the human defensin control named HNP-1 in the text (CYCRIPACIAGERRYGTCIYQGRLWAFCC; ends and bridges not checked; cysteine pairing not given here; UniProt P59665 66-94, looked up)
- minimal microbicidal concentration [1]: > 150 µg/mL
- minimal microbicidal concentration [2]: 80.0 µg/mL
- minimal microbicidal concentration [3]: 12.0 µg/mL

Substance: HNP-1: human defensin (HNP-1), control
- inhibitory activity against C. albicans (FIG. 4c) [1]: substantially noninhibitory
